Measured values published in paper PMC9776381, “A Large-Scale High-Throughput Screen for Modulators of SERCA Activity” (Biomolecules, 2022).
“Also recorded” adds a separate entry of the source.

What was measured:
[1] = molecular target: T1, SERCA2a (cardiac SR vesicles) (Sus scrofa, UniProt P11607); test: NADH-coupled Ca-ATPase activity assay, cardiac SR (CRC at pCa 5.4); type: biochemical, porcine; conditions: pCa 5.4, mean ± SD, n = 3; for Cardiac SR ATPase Activity Percent Increase: maximal effect of CRC
T1 construct: Cardiac SR vesicles were isolated from fresh porcine left ventricular tissue; from tissue; host or cells: porcine left ventricular tissue, cardiac SR vesicles
T1 sequence (P11607 1-997 isoform P11607-2): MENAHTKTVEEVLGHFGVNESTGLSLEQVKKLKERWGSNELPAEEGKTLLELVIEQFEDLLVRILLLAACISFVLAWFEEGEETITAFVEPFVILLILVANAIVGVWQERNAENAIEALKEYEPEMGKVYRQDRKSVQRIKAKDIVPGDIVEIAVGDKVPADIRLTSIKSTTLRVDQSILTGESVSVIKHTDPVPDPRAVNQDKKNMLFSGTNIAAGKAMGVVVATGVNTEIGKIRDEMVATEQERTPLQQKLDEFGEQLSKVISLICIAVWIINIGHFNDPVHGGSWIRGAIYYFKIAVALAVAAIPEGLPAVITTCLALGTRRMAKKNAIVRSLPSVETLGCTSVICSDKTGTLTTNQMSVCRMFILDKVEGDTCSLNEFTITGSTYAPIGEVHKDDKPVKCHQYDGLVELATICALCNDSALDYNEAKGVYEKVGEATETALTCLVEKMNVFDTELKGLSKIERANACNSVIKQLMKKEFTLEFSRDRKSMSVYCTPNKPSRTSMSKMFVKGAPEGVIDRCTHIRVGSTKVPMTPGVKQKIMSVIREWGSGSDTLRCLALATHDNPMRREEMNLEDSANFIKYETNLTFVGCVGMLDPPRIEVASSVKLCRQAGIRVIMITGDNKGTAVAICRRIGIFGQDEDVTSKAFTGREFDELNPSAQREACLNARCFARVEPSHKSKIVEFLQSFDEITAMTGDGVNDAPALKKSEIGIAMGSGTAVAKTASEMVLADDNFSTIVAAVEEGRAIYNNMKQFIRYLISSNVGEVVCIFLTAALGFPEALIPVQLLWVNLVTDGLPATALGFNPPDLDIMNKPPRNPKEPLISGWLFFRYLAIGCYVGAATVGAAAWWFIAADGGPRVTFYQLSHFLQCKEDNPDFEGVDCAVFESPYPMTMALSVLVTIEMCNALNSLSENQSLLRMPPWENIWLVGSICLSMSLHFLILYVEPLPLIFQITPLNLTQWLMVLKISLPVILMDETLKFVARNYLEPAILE
Experimental: (§1) For skeletal SR, rabbit muscles were freshly harvested from the back and hind leg of New Zealand White rabbits and purified using a sucrose gradient. The resulting light skeletal SR contains 80% SERCA, as a proportion of total protein content. Cardiac SR vesicles were isolated from fresh porcine left ventricular tissue.
(§2) Functional assays were performed using rabbit light skeletal sarcoplasmic (SR) vesicles. For high-throughput NADH-coupled screening, assay mix containing a final concentration of 50 mM MOPS (pH 7.0), 100 mM KCl, 1 mM EGTA, 0.2 mM NADH, 1 mM phosphoenol pyruvate, 10 IU/mL of pyruvate kinase, 10 IU/mL of lactate dehydrogenase, 1 µM of the calcium ionophore A23187, 4 µg/mL skeletal SR, and added CaCl2 to obtain pCa 5.4 was dispensed into 384-well DIVERSet assay plates containing 50 nL of compound or DMSO using a FlexDrop Precision liquid dispenser (Perkin Elmer, Waltham, Massachusetts). Plates were sealed, covered from light, and incubated at room temperature for 20 min. The assay was then started by dispensing MgATP (termed “initiation mix”), to a final concentration of 5 mM in each well (80 µL total assay volume) with the FlexDrop liquid dispenser (Perkin Elmer). The time dependence of absorbance was measured at 340 nm in a SpectraMax Plus384 microplate spectrophotometer (Molecular Devices, Sunnyvale, CA). For follow-up concentration response curves of Hit compounds, 400 nL of either compound or DMSO was dispensed into each well using an Echo liquid dispenser (Beckman Coulter). Testing dose-dependent compound effects on rabbit skeletal SR vesicles was done using the same method, as described above in 384-well plates. Determining compound effects on cardiac SR vesicles was done in a similar method as above, with the exception of 10 µg/mL of cardiac SR incubated in assay mix consisting of a final concentration of 50 mM MOPS (pH 7.0), 100 mM KCl, 1 mM EGTA, 1 µM of the calcium ionophore A23187, and added CaCl2 to the desired free calcium values. After a 20 min incubation, the “initiation mix”, containing a final concentration of 0.2 mM NADH, 1 mM phosphoenol pyruvate, 10 IU/mL of pyruvate kinase, 10 IU/mL of lactate dehydrogenase, and 5mM MgATP, was dispensed into each well.
While initial screening was performed in skeletal SR enriched with the SERCA1a isoform, high sequence and structural homology with the cardiac SERCA2a isoform predicts a potential for cross reactivity of the Hit compounds. To test this hypothesis, we performed ATPase analyses with cardiac SR microsomes, which are enriched for SERCA2a.

[2] = molecular target: T2, SERCA1a (skeletal SR vesicles) (Oryctolagus cuniculus, UniProt P04191); test: Oxalate-supported Ca2+-uptake assay, skeletal SR (CRC at pCa 5.4); type: biochemical, rabbit; conditions: for Skeletal SR Ca^2+ Uptake Activity Percent Increase: maximal effect of CRC; for Skeletal SR Ca^2+ Uptake Activity Percent Increase / EC50: pCa 5.4, mean ± SD, dash = no observable effect; for EC50: read-out: Skeletal SR Ca^2+ Uptake Activity EC50; for Effect on Ca^2+ uptake activity in skeletal SR (in words): pCa 5.4; for Ca^2+ uptake effect (in words), SR type not given: uncoupling compounds, cluster 5, tissue not stated
T2 construct: rabbit muscles were freshly harvested from the back and hind leg of New Zealand White rabbits and purified using a sucrose gradient; from tissue; host or cells: rabbit (New Zealand White) back and hind leg skeletal muscle, light SR vesicles
T2 sequence (P04191 1-994 isoform P04191-2): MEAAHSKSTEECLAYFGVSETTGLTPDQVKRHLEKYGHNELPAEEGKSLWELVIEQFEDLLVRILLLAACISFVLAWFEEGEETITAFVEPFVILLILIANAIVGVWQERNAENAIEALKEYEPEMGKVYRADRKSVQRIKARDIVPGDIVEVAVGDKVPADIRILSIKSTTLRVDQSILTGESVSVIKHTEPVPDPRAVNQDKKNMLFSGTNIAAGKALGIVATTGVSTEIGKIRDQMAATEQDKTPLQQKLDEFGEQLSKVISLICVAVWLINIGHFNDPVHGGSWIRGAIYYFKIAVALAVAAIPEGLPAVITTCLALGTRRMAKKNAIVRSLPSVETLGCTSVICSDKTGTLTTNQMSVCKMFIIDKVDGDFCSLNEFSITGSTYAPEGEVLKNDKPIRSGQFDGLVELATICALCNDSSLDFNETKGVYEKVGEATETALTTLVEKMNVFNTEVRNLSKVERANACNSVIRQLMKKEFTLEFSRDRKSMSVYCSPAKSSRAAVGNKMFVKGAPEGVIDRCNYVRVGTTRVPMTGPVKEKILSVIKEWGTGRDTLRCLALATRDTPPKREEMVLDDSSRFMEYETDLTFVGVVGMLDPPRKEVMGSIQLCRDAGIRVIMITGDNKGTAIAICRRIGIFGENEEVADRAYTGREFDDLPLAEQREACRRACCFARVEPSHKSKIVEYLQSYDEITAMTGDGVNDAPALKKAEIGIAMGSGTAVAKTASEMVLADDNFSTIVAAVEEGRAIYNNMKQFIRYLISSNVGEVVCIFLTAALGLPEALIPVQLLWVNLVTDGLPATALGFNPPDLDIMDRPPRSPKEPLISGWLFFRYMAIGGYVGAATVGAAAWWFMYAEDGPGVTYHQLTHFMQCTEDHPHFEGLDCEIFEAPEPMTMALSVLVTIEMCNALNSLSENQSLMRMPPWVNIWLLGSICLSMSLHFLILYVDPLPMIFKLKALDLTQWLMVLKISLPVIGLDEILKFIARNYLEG
Experimental: as §1
(§3) To determine compound effect on the Ca^2+-uptake activity of SERCA1a and SERCA2a, we used an oxalate-supported assay. A solution containing 50 mM MOPS (pH 7.0), 100 mM KCl, 30 mg/mL sucrose, 1 mM EGTA, 10 mM potassium oxalate, 2 µM Fluo-4, 30 µg/mL cardiac SR vesicles or 12 μg/mL skeletal SR vesicles, and CaCl2 calculated to reach the desired free [Ca^2+] was dispensed into 384-well black walled, transparent bottomed plates (Greiner Bio-One) containing the tested small molecule and incubated at 21 °C for 20 min while covered and protected from light. To start the reaction, MgATP was added to a final concentration of 5 mM, and the decrease in 485-nm excited fluorescence was monitored at 520 nm for 15 min using a FLIPR Tetra (Molecular Devices, San Jose, CA, USA).
While Ca^2+-dependent ATPase activity is a direct measure of SERCA activity, coupling of ATP hydrolysis to transport of Ca^2+ across the SR membrane is essential for the role of SERCA in cellular physiology. Therefore, we next asked whether our ATPase-based HTS assay could successfully identify compounds that also increase Ca^2+ uptake of SERCA.

[3] = molecular target: T1, SERCA2a (cardiac SR vesicles); test: Oxalate-supported Ca2+-uptake assay, cardiac SR (CRC at pCa 5.4); type: biochemical, porcine; conditions: for Compound classification from ATPase vs. Ca^2+ uptake CRCs, cardiac SR / Cardiac SR Ca^2+ Uptake Activity Percent Increase / EC50: n = 3; for Cardiac SR Ca^2+ Uptake Activity Percent Increase: maximal effect of CRC; for Cardiac SR Ca^2+ Uptake Activity Percent Increase / EC50: pCa 5.4, mean ± SD, dash = no observable effect; for EC50: read-out: Cardiac SR Ca^2+ Uptake Activity EC50
Experimental: as §1, §3
To determine whether the observed increases in SERCA2a ATPase activity translate to Ca^2+ uptake function, we applied our Ca^2+ transport assay to test our selected Hit compounds in cardiac SR (Table 1). Indeed, 16 of the 19 compounds yielded a clear increase in Ca^2+ uptake activity. In fact, eight compounds generated an increase at least 50% greater in cardiac SR than in skeletal SR. Three compounds had either an inhibitory or no effect on Ca^2+ transport, and two of these were also non-activating compounds in skeletal SR.

[4] = molecular target: T3, SERCA1a (rabbit light skeletal SR vesicles) (Oryctolagus cuniculus, UniProt P04191); test: NADH-coupled Ca-ATPase activity assay, skeletal SR (CRC at pCa 5.4); type: biochemical; conditions: n = 3; for Skeletal SR ATPase Activity Percent Increase: maximal effect of CRC 0.05 to 50 µM, pCa 5.4, relative to DMSO, mean ± SD; for EC50: pCa 5.4, mean ± SD
T3 construct: rabbit muscles were freshly harvested from the back and hind leg of New Zealand White rabbits and purified using a sucrose gradient; from tissue; host or cells: rabbit (New Zealand White) back and hind leg skeletal muscle, light SR vesicles
T3 sequence (P04191 1-994 isoform P04191-2): as above
Experimental: as §1, §2
The initial screen assay was performed with compounds at 10 µM. To better study the selected Hit compounds for their activation potential, we performed ATPase analyses (in triplicate) over a range of Hit concentrations (0.05 to 50 µM), generating concentration-response curves (CRCs) to determine maximal effects and EC50 (Figure 2). We used the same Ca^2+ concentration (pCa 5.4) as in the screening assays, thus focusing on the effects on the maximal velocity of SERCA. Two of the selected Hits yielded no response in follow-up assays, probably due to a mismatch in chemical composition between the library compound and the subsequently ordered compound (DS95401435 and DS41547941). This type of discrepancy is a typical hurdle in the screening process. Each of the other 19 compounds produced a substantial increase in ATPase activity, ranging from 30% to 72% (Table 1 and Supporting Information, Figure S1), as expected due to similarity of the CRC assay to the initial screen.

Question: How did the “Cardiac SR ATPase Activity Percent Increase” value [1] turn out when `CCCSCC(=O)N(Cc1ccc(C)s1)C1CCCC1` [Compound 3] was run?
Answer: Its value is 48 ± 4%.

Question: What about the EC50 [1] of the same compound?
Answer: The EC50 was 6.7 ± 1 µM.

Question: And the “Skeletal SR Ca^2+ Uptake Activity Percent Increase” value ([2]; n = 3)?
Answer: Its value is 20 ± 1%.

Question: What about the EC50 ([2]; n = 3) of the same compound?
Answer: The EC50 was 3.4 ± 0.5 µM.

Question: What about the “Compound classification from ATPase vs. Ca^2+ uptake CRCs, cardiac SR” value ([3]; cardiac SR) of the same compound?
Answer: Its value is “Improved Coupling Compounds”.

Question: What about the “Cardiac SR Ca^2+ Uptake Activity Percent Increase” value [3] of the same compound?
Answer: The value was 37 ± 3%.

Question: And the EC50 [3]?
Answer: Its EC50 is 3.5 ± 0.7 µM.

Question: And the “Skeletal SR ATPase Activity Percent Increase” value [4]?
Answer: Its value is 54 ± 2%.

Question: What about the EC50 [4] of the same compound?
Answer: Its EC50 is 7.3 ± 0.5 µM.

Question: How did the “Cardiac SR ATPase Activity Percent Increase” value [1] turn out when `Cc1ccsc1CN(C)C(=O)CC(c1ccccc1)c1ccc2c(c1)OCO2` (centres unmarked) [Compound 11] was run?
Answer: Its value is 62 ± 2%.

Question: What about the EC50 [1] of the same compound?
Answer: Its EC50 is 6.4 ± 0.4 µM.

Question: And the “Skeletal SR Ca^2+ Uptake Activity Percent Increase” value ([2]; n = 3)?
Answer: The value was 9.1 ± 0.8%.

Question: What about the EC50 ([2]; n = 3) of the same compound?
Answer: The EC50 was 1.2 ± 0.3 µM.

Question: What about the “Cardiac SR Ca^2+ Uptake Activity Percent Increase” value [3] of the same compound?
Answer: Its value is 18 ± 2%.

Question: And the EC50 [3]?
Answer: The EC50 was 1.2 ± 0.4 µM.

Question: And the “Skeletal SR ATPase Activity Percent Increase” value [4]?
Answer: Its value is 61 ± 2%.

Question: And the EC50 [4]?
Answer: The EC50 was 7.2 ± 0.4 µM.

Question: `CCOC(=O)C1(CCc2ccccc2)CCN(C(=O)c2occc2C)CC1` [Compound 9] was tested. Which “Cardiac SR ATPase Activity Percent Increase” value [1] did it give?
Answer: Its value is 85 ± 5%.

Question: What about the EC50 [1] of the same compound?
Answer: The EC50 was 11 ± 1 µM.

Question: And the “Skeletal SR Ca^2+ Uptake Activity Percent Increase” value ([2]; n = 3)?
Answer: The value was 31 ± 7%.

Question: And the EC50 ([2]; n = 3)?
Answer: Its EC50 is 8 ± 5 µM.

Question: What about the “Compound classification from ATPase vs. Ca^2+ uptake CRCs, cardiac SR” value ([3]; cardiac SR) of the same compound?
Answer: The value was “Linked Activating Compounds”.

Question: And the “Cardiac SR Ca^2+ Uptake Activity Percent Increase” value [3]?
Answer: The value was 33 ± 3%.

Question: What about the EC50 [3] of the same compound?
Answer: The EC50 was 4 ± 0.8 µM.

Question: And the “Skeletal SR ATPase Activity Percent Increase” value [4]?
Answer: The value was 72 ± 2%.

Question: What about the EC50 [4] of the same compound?
Answer: Its EC50 is 13.3 ± 0.7 µM.

Question: What does the source list for `CCCN(Cc1ccccc1OC)C(=O)c1cc(C)c(C)s1` [Compound 4]?
Answer: Cardiac SR ATPase Activity Percent Increase [1]: 58 ± 4%; EC50 [1]: 4.8 ± 0.6 µM; Skeletal SR Ca^2+ Uptake Activity Percent Increase ([2]; n = 3): 14 ± 2%; EC50 ([2]; n = 3): 1.4 ± 0.5 µM; Cardiac SR Ca^2+ Uptake Activity Percent Increase [3]: 24 ± 1%; EC50 [3]: 1.6 ± 0.3 µM; Skeletal SR ATPase Activity Percent Increase [4]: 53 ± 2%; EC50 [4]: 5.4 ± 0.4 µM

Question: How did the “Cardiac SR ATPase Activity Percent Increase” value [1] turn out when `COc1ccc(CCNC(=O)c2oc3c(Cl)cc(C)cc3c2C)cc1` [Compound 16] was run?
Answer: Its value is 26 ± 2%.

Question: What about the EC50 [1] of the same compound?
Answer: The EC50 was 2.2 ± 0.4 µM.

Question: And the “Skeletal SR Ca^2+ Uptake Activity Percent Increase” value ([2]; n = 3)?
Answer: The value was −10 ± 2%.

Question: What about the EC50 ([2]; n = 3) of the same compound?
Answer: Its EC50 is 7 ± 13 µM.

Question: What about the “Compound classification from ATPase vs. Ca^2+ uptake CRCs, skeletal SR” value ([2]; skeletal SR, n = 3) of the same compound?
Answer: Its value is “Uncoupling Compounds”.

Question: And the “Effect on Ca^2+ uptake activity in skeletal SR (in words)” value ([2]; skeletal SR)?
Answer: The value was “inhibition of Ca^2+ uptake activity; also recorded: inhibitor of Ca^2+ uptake”.

Question: What about the “Effect on Ca^2+ uptake activity in skeletal SR (in words)” value ([2]; skeletal SR, listed as DS33804556) of the same compound?
Answer: The value was “inhibitory”.

Question: What about the “Ca^2+ uptake effect (in words), SR type not given” value [2] of the same compound?
Answer: The value was “sizeable inhibitor effect”.

Question: And the “Compound classification from ATPase vs. Ca^2+ uptake CRCs, cardiac SR” value ([3]; cardiac SR)?
Answer: Its value is “Uncoupling Compounds”.

Question: And the “Effect on Ca^2+ uptake activity in cardiac SR (in words)” value ([3]; cardiac SR, pCa 5.4)?
Answer: The value was “inhibition of Ca^2+ uptake activity; also recorded: inhibitor of Ca^2+ uptake”.

Question: What about the “Cardiac SR Ca^2+ Uptake Activity Percent Increase” value [3] of the same compound?
Answer: Its value is −27 ± 3%.

Question: And the EC50 [3]?
Answer: The EC50 was 8.9 ± 2 µM.

Question: What about the “Skeletal SR ATPase Activity Percent Increase” value [4] of the same compound?
Answer: The value was 25 ± 1%.

Question: What about the EC50 [4] of the same compound?
Answer: The EC50 was 3 ± 0.3 µM.

Question: `CCc1cccc(NC(=O)CCC(=O)NCc2snnc2C)c1` [Compound 17] was tested. Which “Cardiac SR ATPase Activity Percent Increase” value [1] did it give?
Answer: The value was 62 ± 5%.

Question: And the EC50 [1]?
Answer: The EC50 was 9.4 ± 1 µM.

Question: And the “Ca^2+ uptake effect (in words), SR type not given” value [2]?
Answer: Its value is “little to no Ca^2+ uptake effect”.

Question: What about the “Skeletal SR ATPase Activity Percent Increase” value [4] of the same compound?
Answer: The value was 42 ± 4%.

Question: What about the EC50 [4] of the same compound?
Answer: The EC50 was 16 ± 3 µM.
